# Tested on: EM-2;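 also: growth inhibition of EM-2 cells, read out with a cell viability assay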
# Assay: cells
# Format: functional, cell-based, Homo sapiens
# Conditions: Homo sapiens, EM-2
# Description: SANGER: Inhibition of human EM-2 cell growth in a cell viability assay.
row,SMILES,IC50 [µM]
1,COc1cc2ncn(-c3cc(OCc4ccccc4S(C)(=O)=O)c(C#N)s3)c2cc1OC [GSK-319347A],> 5

# Tested on: ES3;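 also: growth inhibition of ES3 cells, read out with a cell viability assay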
# Assay: cells
# Format: functional, cell-based, Homo sapiens
# Conditions: Homo sapiens, ES3
# Description: SANGER: Inhibition of human ES3 cell growth in a cell viability assay.
row,SMILES,IC50 [µM]
1,COc1cc2ncn(-c3cc(OCc4ccccc4S(C)(=O)=O)c(C#N)s3)c2cc1OC [GSK-319347A],> 5

# Tested on: JVM-2;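 also: growth inhibition of JVM-2 cells determined by a cell viability assay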
# Assay: cells
# Format: functional, cell-based, Homo sapiens
# Conditions: Homo sapiens, JVM-2
# Description: SANGER: Inhibition of human JVM-2 cell growth in a cell viability assay.
row,SMILES,IC50 [µM]
1,COc1cc2ncn(-c3cc(OCc4ccccc4S(C)(=O)=O)c(C#N)s3)c2cc1OC [GSK-319347A],> 5

# Tested on: MV4-11;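 also: cell viability readout measuring growth inhibition of human MV-4-11 cells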
# Assay: cells
# Format: functional, cell-based, Homo sapiens, MV-4-11
# Conditions: Homo sapiens, MV4-11
# Description: SANGER: Inhibition of human MV-4-11 cell growth in a cell viability assay.
row,SMILES,IC50 [µM]
1,COc1cc2ncn(-c3cc(OCc4ccccc4S(C)(=O)=O)c(C#N)s3)c2cc1OC [GSK-319347A],> 5

# Tested on: BV-173
# Assay: cells
# Format: functional, cell-based, Homo sapiens
# Conditions: Homo sapiens, BV-173
# Description: SANGER: Inhibition of human BV-173 cell growth in a cell viability assay.
row,SMILES,IC50 [µM]
1,COc1cc2ncn(-c3cc(OCc4ccccc4S(C)(=O)=O)c(C#N)s3)c2cc1OC [GSK-319347A],> 5

# Tested on: SH-4;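 also: growth inhibition of SH-4 cells, read out with a cell viability assay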
# Assay: cells
# Format: functional, cell-based, Homo sapiens
# Conditions: Homo sapiens, SH-4
# Description: SANGER: Inhibition of human SH-4 cell growth in a cell viability assay.
row,SMILES,IC50 [µM]
1,COc1cc2ncn(-c3cc(OCc4ccccc4S(C)(=O)=O)c(C#N)s3)c2cc1OC [GSK-319347A],> 5

# Tested on: MS-1
# Assay: cells
# Format: functional, cell-based, Homo sapiens
# Conditions: Homo sapiens, MS-1
# Description: SANGER: Inhibition of human MS-1 cell growth in a cell viability assay.
row,SMILES,IC50 [µM]
1,COc1cc2ncn(-c3cc(OCc4ccccc4S(C)(=O)=O)c(C#N)s3)c2cc1OC [GSK-319347A],> 5

# Tested on: MFM-223
# Assay: cells
# Format: functional, cell-based, Homo sapiens
# Conditions: Homo sapiens, MFM-223
# Description: SANGER: Inhibition of human MFM-223 cell growth in a cell viability assay.
row,SMILES,IC50 [µM]
1,COc1cc2ncn(-c3cc(OCc4ccccc4S(C)(=O)=O)c(C#N)s3)c2cc1OC [GSK-319347A],> 5

# Tested on: HCC 2998;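 also: growth inhibition of human HCC2998 cells, measured with a cell viability read-out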
# Assay: cells
# Format: functional, cell-based, Homo sapiens
# Conditions: Homo sapiens, HCC 2998
# Description: SANGER: Inhibition of human HCC2998 cell growth in a cell viability assay.
row,SMILES,IC50 [µM]
1,COc1cc2ncn(-c3cc(OCc4ccccc4S(C)(=O)=O)c(C#N)s3)c2cc1OC [GSK-319347A],> 5

# Tested on: OMC-1;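 also: growth inhibition of the OMC-1 cell line, measured by a cell viability assay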
# Assay: cells
# Format: functional, cell-based, Homo sapiens
# Conditions: Homo sapiens, OMC-1
# Description: SANGER: Inhibition of human OMC-1 cell growth in a cell viability assay.
row,SMILES,IC50 [µM]
1,COc1cc2ncn(-c3cc(OCc4ccccc4S(C)(=O)=O)c(C#N)s3)c2cc1OC [GSK-319347A],> 5

# Tested on: LS-513
# Assay: cells
# Format: functional, cell-based, Homo sapiens
# Conditions: Homo sapiens, LS-513
# Description: SANGER: Inhibition of human LS-513 cell growth in a cell viability assay.
row,SMILES,IC50 [µM]
1,COc1cc2ncn(-c3cc(OCc4ccccc4S(C)(=O)=O)c(C#N)s3)c2cc1OC [GSK-319347A],> 5

# Tested on: ETK-1;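 also: growth inhibition of human ETK-1 cells, read out with a cell viability assay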
# Assay: cells
# Format: functional, cell-based, Homo sapiens
# Conditions: Homo sapiens, ETK-1
# Description: SANGER: Inhibition of human ETK-1 cell growth in a cell viability assay.
row,SMILES,IC50 [µM]
1,COc1cc2ncn(-c3cc(OCc4ccccc4S(C)(=O)=O)c(C#N)s3)c2cc1OC [GSK-319347A],> 5

# Tested on: NCI-H1355;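 also: growth inhibition of human NCI-H1355 cells, read out by a cell viability assay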
# Assay: cells
# Format: functional, cell-based, Homo sapiens
# Conditions: Homo sapiens, NCI-H1355
# Description: SANGER: Inhibition of human NCI-H1355 cell growth in a cell viability assay.
row,SMILES,IC50 [µM]
1,COc1cc2ncn(-c3cc(OCc4ccccc4S(C)(=O)=O)c(C#N)s3)c2cc1OC [GSK-319347A],> 5

# Tested on: IST-SL1;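 also: growth inhibition of human IST-SL1 cells, read out with a cell viability assay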
# Assay: cells
# Format: functional, cell-based, Homo sapiens
# Conditions: Homo sapiens, IST-SL1
# Description: SANGER: Inhibition of human IST-SL1 cell growth in a cell viability assay.
row,SMILES,IC50 [µM]
1,COc1cc2ncn(-c3cc(OCc4ccccc4S(C)(=O)=O)c(C#N)s3)c2cc1OC [GSK-319347A],> 5

# Tested on: RH-1;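 also: growth inhibition of human RH-1 cells, read out with a cell viability assay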
# Assay: cells
# Format: functional, cell-based, Homo sapiens
# Conditions: Homo sapiens, RH-1
# Description: SANGER: Inhibition of human RH-1 cell growth in a cell viability assay.
row,SMILES,IC50 [µM]
1,COc1cc2ncn(-c3cc(OCc4ccccc4S(C)(=O)=O)c(C#N)s3)c2cc1OC [GSK-319347A],> 5

# Tested on: LB2518-MEL;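 also: growth inhibition of human LB2518-MEL cells, measured with a cell viability assay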
# Assay: cells
# Format: functional, cell-based, Homo sapiens
# Conditions: Homo sapiens, LB2518-MEL
# Description: SANGER: Inhibition of human LB2518-MEL cell growth in a cell viability assay.
row,SMILES,IC50 [µM]
1,COc1cc2ncn(-c3cc(OCc4ccccc4S(C)(=O)=O)c(C#N)s3)c2cc1OC [GSK-319347A],> 5

# Tested on: KGN;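 also: growth inhibition of KGN cells, read out with a cell viability assay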
# Assay: cells
# Format: functional, cell-based, Homo sapiens
# Conditions: Homo sapiens, KGN
# Description: SANGER: Inhibition of human KGN cell growth in a cell viability assay.
row,SMILES,IC50 [µM]
1,COc1cc2ncn(-c3cc(OCc4ccccc4S(C)(=O)=O)c(C#N)s3)c2cc1OC [GSK-319347A],> 5

# Tested on: KALS-1;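 also: growth inhibition of KALS-1 cells, determined with a cell viability assay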
# Assay: cells
# Format: functional, cell-based, Homo sapiens
# Conditions: Homo sapiens, KALS-1
# Description: SANGER: Inhibition of human KALS-1 cell growth in a cell viability assay.
row,SMILES,IC50 [µM]
1,COc1cc2ncn(-c3cc(OCc4ccccc4S(C)(=O)=O)c(C#N)s3)c2cc1OC [GSK-319347A],> 5

# Tested on: NMC-G1;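 also: growth inhibition of the NMC-G1 cell line, measured with a cell viability read-out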
# Assay: cells
# Format: functional, cell-based, Homo sapiens
# Conditions: Homo sapiens, NMC-G1
# Description: SANGER: Inhibition of human NMC-G1 cell growth in a cell viability assay.
row,SMILES,IC50 [µM]
1,COc1cc2ncn(-c3cc(OCc4ccccc4S(C)(=O)=O)c(C#N)s3)c2cc1OC [GSK-319347A],> 5

# Tested on: EW-11;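 also: growth inhibition of human EW-11 cells, measured with a cell viability assay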
# Assay: cells
# Format: functional, cell-based, Homo sapiens
# Conditions: Homo sapiens, EW-11
# Description: SANGER: Inhibition of human EW-11 cell growth in a cell viability assay.
row,SMILES,IC50 [µM]
1,COc1cc2ncn(-c3cc(OCc4ccccc4S(C)(=O)=O)c(C#N)s3)c2cc1OC [GSK-319347A],> 5

# Tested on: NCI-N87;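 also: growth inhibition of human NCI-N87 cells, read out with a cell viability assay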
# Assay: cells
# Format: functional, cell-based, Homo sapiens
# Conditions: Homo sapiens, NCI-N87
# Description: SANGER: Inhibition of human NCI-N87 cell growth in a cell viability assay.
row,SMILES,IC50 [µM]
1,COc1cc2ncn(-c3cc(OCc4ccccc4S(C)(=O)=O)c(C#N)s3)c2cc1OC [GSK-319347A],> 5

# Tested on: DMS-114
# Assay: cells
# Format: functional, cell-based, Homo sapiens
# Conditions: Homo sapiens, DMS-114
row,SMILES,IC50 [µM]
1,COc1cc2ncn(-c3cc(OCc4ccccc4S(C)(=O)=O)c(C#N)s3)c2cc1OC [GSK-319347A],> 5

# Tested on: SK-NEP-1;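 also: growth inhibition of human SK-NEP-1 cells, read out by a cell viability assay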
# Assay: cells
# Format: functional, cell-based, Homo sapiens
# Conditions: Homo sapiens, SK-NEP-1
# Description: SANGER: Inhibition of human SK-NEP-1 cell growth in a cell viability assay.
row,SMILES,IC50 [µM]
1,COc1cc2ncn(-c3cc(OCc4ccccc4S(C)(=O)=O)c(C#N)s3)c2cc1OC [GSK-319347A],> 5

# Tested on: C2BBe1;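 also: growth inhibition of C2BBe1 cells, read out through a viability assay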
# Assay: cells
# Format: functional, cell-based, Homo sapiens
# Conditions: Homo sapiens, C2BBe1
# Description: SANGER: Inhibition of human C2BBe1 cell growth in a cell viability assay.
row,SMILES,IC50 [µM]
1,COc1cc2ncn(-c3cc(OCc4ccccc4S(C)(=O)=O)c(C#N)s3)c2cc1OC [GSK-319347A],> 5

# Tested on: EW-3;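 also: cell viability assay read-out, IC50 reflects inhibition of growth of the EW-3 cells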
# Assay: cells
# Format: functional, cell-based, Homo sapiens
# Conditions: Homo sapiens, EW-3
# Description: SANGER: Inhibition of human EW-3 cell growth in a cell viability assay.
row,SMILES,IC50 [µM]
1,COc1cc2ncn(-c3cc(OCc4ccccc4S(C)(=O)=O)c(C#N)s3)c2cc1OC [GSK-319347A],> 5

# Tested on: DEL;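 also: growth inhibition of the human DEL cell line, read out with a cell viability assay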
# Assay: cells
# Format: functional, cell-based, Homo sapiens
# Conditions: Homo sapiens, DEL
# Description: SANGER: Inhibition of human DEL cell growth in a cell viability assay.
row,SMILES,IC50 [µM]
1,COc1cc2ncn(-c3cc(OCc4ccccc4S(C)(=O)=O)c(C#N)s3)c2cc1OC [GSK-319347A],> 5

# Tested on: MN-60;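 also: growth inhibition of the MN-60 cell line, determined with a cell viability assay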
# Assay: cells
# Format: functional, cell-based, Homo sapiens
# Conditions: Homo sapiens, MN-60
# Description: SANGER: Inhibition of human MN-60 cell growth in a cell viability assay.
row,SMILES,IC50 [µM]
1,COc1cc2ncn(-c3cc(OCc4ccccc4S(C)(=O)=O)c(C#N)s3)c2cc1OC [GSK-319347A],> 5

# Tested on: KARPAS-45;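 also: inhibition of cell line growth, read out through a viability assay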
# Assay: cells
# Format: functional, cell-based, Homo sapiens
# Conditions: Homo sapiens, KARPAS-45
# Description: SANGER: Inhibition of human KARPAS-45 cell growth in a cell viability assay.
row,SMILES,IC50 [µM]
1,COc1cc2ncn(-c3cc(OCc4ccccc4S(C)(=O)=O)c(C#N)s3)c2cc1OC [GSK-319347A],> 5

# Tested on: SK-N-DZ;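 also: growth inhibition of the cancer cell line, read out through a viability assay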
# Assay: cells
# Format: functional, cell-based, Homo sapiens
# Conditions: Homo sapiens, SK-N-DZ
# Description: SANGER: Inhibition of human SK-N-DZ cell growth in a cell viability assay.
row,SMILES,IC50 [µM]
1,COc1cc2ncn(-c3cc(OCc4ccccc4S(C)(=O)=O)c(C#N)s3)c2cc1OC [GSK-319347A],> 5

# Tested on: LB831-BLC;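 also: growth inhibition of LB831-BLC cells, read out with a cell viability assay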
# Assay: cells
# Format: functional, cell-based, Homo sapiens
# Conditions: Homo sapiens, LB831-BLC
# Description: SANGER: Inhibition of human LB831-BLC cell growth in a cell viability assay.
row,SMILES,IC50 [µM]
1,COc1cc2ncn(-c3cc(OCc4ccccc4S(C)(=O)=O)c(C#N)s3)c2cc1OC [GSK-319347A],> 5

# Tested on: KNS-42;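 also: growth inhibition of KNS-42 cells, read out with a cell viability assay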
# Assay: cells
# Format: functional, cell-based, Homo sapiens
# Conditions: Homo sapiens, KNS-42
# Description: SANGER: Inhibition of human KNS-42 cell growth in a cell viability assay.
row,SMILES,IC50 [µM]
1,COc1cc2ncn(-c3cc(OCc4ccccc4S(C)(=O)=O)c(C#N)s3)c2cc1OC [GSK-319347A],> 5

# Tested on: EW-13;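 also: growth inhibition of EW-13 cells, read out with a cell viability assay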
# Assay: cells
# Format: functional, cell-based, Homo sapiens
# Conditions: Homo sapiens, EW-13
# Description: SANGER: Inhibition of human EW-13 cell growth in a cell viability assay.
row,SMILES,IC50 [µM]
1,COc1cc2ncn(-c3cc(OCc4ccccc4S(C)(=O)=O)c(C#N)s3)c2cc1OC [GSK-319347A],> 5

# Tested on: NCI-H526;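 also: growth inhibition of the human NCI-H526 cell line, measured by a cell viability assay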
# Assay: cells
# Format: functional, cell-based, Homo sapiens
# Conditions: Homo sapiens, NCI-H526
# Description: SANGER: Inhibition of human NCI-H526 cell growth in a cell viability assay.
row,SMILES,IC50 [µM]
1,COc1cc2ncn(-c3cc(OCc4ccccc4S(C)(=O)=O)c(C#N)s3)c2cc1OC [GSK-319347A],> 5

# Tested on: HCE-T;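 also: cell viability assay read-out, reporting inhibition of HCE-T cell growth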
# Assay: cells
# Format: functional, cell-based, Homo sapiens
# Conditions: Homo sapiens, HCE-T
# Description: SANGER: Inhibition of human HCE-T cell growth in a cell viability assay.
row,SMILES,IC50 [µM]
1,COc1cc2ncn(-c3cc(OCc4ccccc4S(C)(=O)=O)c(C#N)s3)c2cc1OC [GSK-319347A],> 5

# Tested on: D-502MG
# Assay: cells
# Format: functional, cell-based, Homo sapiens
# Conditions: Homo sapiens, D-502MG
# Description: SANGER: Inhibition of human D-502MG cell growth in a cell viability assay.
row,SMILES,IC50 [µM]
1,COc1cc2ncn(-c3cc(OCc4ccccc4S(C)(=O)=O)c(C#N)s3)c2cc1OC [GSK-319347A],> 5

# Tested on: RPMI-8226
# Assay: cells
# Format: functional, cell-based, Homo sapiens
# Conditions: Homo sapiens, RPMI-8226
# Description: SANGER: Inhibition of human RPMI-8226 cell growth in a cell viability assay.
row,SMILES,IC50 [µM]
1,COc1cc2ncn(-c3cc(OCc4ccccc4S(C)(=O)=O)c(C#N)s3)c2cc1OC [GSK-319347A],> 5

# Tested on: DOHH-2;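 also: growth inhibition of human DOHH-2 cells, read out with a cell viability assay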
# Assay: cells
# Format: functional, cell-based, Homo sapiens
# Conditions: Homo sapiens, DOHH-2
# Description: SANGER: Inhibition of human DOHH-2 cell growth in a cell viability assay.
row,SMILES,IC50 [µM]
1,COc1cc2ncn(-c3cc(OCc4ccccc4S(C)(=O)=O)c(C#N)s3)c2cc1OC [GSK-319347A],> 5

# Tested on: LAMA-84;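 also: growth inhibition of LAMA-84 cells, read out with a cell viability assay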
# Assay: cells
# Format: functional, cell-based, Homo sapiens
# Conditions: Homo sapiens, LAMA-84
# Description: SANGER: Inhibition of human LAMA-84 cell growth in a cell viability assay.
row,SMILES,IC50 [µM]
1,COc1cc2ncn(-c3cc(OCc4ccccc4S(C)(=O)=O)c(C#N)s3)c2cc1OC [GSK-319347A],> 5

# Tested on: LB771-HNC;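 also: growth inhibition of LB771-HNC human cells, read out with a cell viability assay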
# Assay: cells
# Format: functional, cell-based, Homo sapiens
# Conditions: Homo sapiens, LB771-HNC
# Description: SANGER: Inhibition of human LB771-HNC cell growth in a cell viability assay.
row,SMILES,IC50 [µM]
1,COc1cc2ncn(-c3cc(OCc4ccccc4S(C)(=O)=O)c(C#N)s3)c2cc1OC [GSK-319347A],> 5

# Tested on: CAS-1;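 also: growth inhibition of CAS-1 cells, measured with a cell viability assay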
# Assay: cells
# Format: functional, cell-based, Homo sapiens
# Conditions: Homo sapiens, CAS-1
# Description: SANGER: Inhibition of human CAS-1 cell growth in a cell viability assay.
row,SMILES,IC50 [µM]
1,COc1cc2ncn(-c3cc(OCc4ccccc4S(C)(=O)=O)c(C#N)s3)c2cc1OC [GSK-319347A],> 5

# Tested on: P30-OHK;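 also: growth inhibition of the P30-OHK cell line, read out with a cell viability assay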
# Assay: cells
# Format: functional, cell-based, Homo sapiens
# Conditions: Homo sapiens, P30-OHK
# Description: SANGER: Inhibition of human P30-OHK cell growth in a cell viability assay.
row,SMILES,IC50 [µM]
1,COc1cc2ncn(-c3cc(OCc4ccccc4S(C)(=O)=O)c(C#N)s3)c2cc1OC [GSK-319347A],> 5

# Tested on: HH
# Assay: cells
# Format: functional, cell-based, Homo sapiens
# Conditions: Homo sapiens, HH
# Description: SANGER: Inhibition of human HH cell growth in a cell viability assay.
row,SMILES,IC50 [µM]
1,COc1cc2ncn(-c3cc(OCc4ccccc4S(C)(=O)=O)c(C#N)s3)c2cc1OC [GSK-319347A],> 5

# Tested on: K5
# Assay: cells
# Format: functional, cell-based, Homo sapiens
# Conditions: Homo sapiens, K5
# Description: SANGER: Inhibition of human K5 cell growth in a cell viability assay.
row,SMILES,IC50 [µM]
1,COc1cc2ncn(-c3cc(OCc4ccccc4S(C)(=O)=O)c(C#N)s3)c2cc1OC [GSK-319347A],> 5

# Tested on: JVM-3;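 also: growth inhibition of human JVM-3 cells, read out with a cell viability assay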
# Assay: cells
# Format: functional, cell-based, Homo sapiens
# Conditions: Homo sapiens, JVM-3
# Description: SANGER: Inhibition of human JVM-3 cell growth in a cell viability assay.
row,SMILES,IC50 [µM]
1,COc1cc2ncn(-c3cc(OCc4ccccc4S(C)(=O)=O)c(C#N)s3)c2cc1OC [GSK-319347A],> 5

# Tested on: ALL-PO;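 also: growth inhibition of ALL-PO cells, read out by a cell viability assay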
# Assay: cells
# Format: functional, cell-based, Homo sapiens
# Conditions: Homo sapiens, ALL-PO
# Description: SANGER: Inhibition of human ALL-PO cell growth in a cell viability assay.
row,SMILES,IC50 [µM]
1,COc1cc2ncn(-c3cc(OCc4ccccc4S(C)(=O)=O)c(C#N)s3)c2cc1OC [GSK-319347A],> 5

# Tested on: LS-411N
# Assay: cells
# Format: functional, cell-based, Homo sapiens
# Conditions: Homo sapiens, LS-411N
row,SMILES,IC50 [µM]
1,COc1cc2ncn(-c3cc(OCc4ccccc4S(C)(=O)=O)c(C#N)s3)c2cc1OC [GSK-319347A],> 5

# Tested on: ATN-1;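 also: growth inhibition of human ATN-1 cells, read out with a cell viability assay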
# Assay: cells
# Format: functional, cell-based, Homo sapiens
# Conditions: Homo sapiens, ATN-1
# Description: SANGER: Inhibition of human ATN-1 cell growth in a cell viability assay.
row,SMILES,IC50 [µM]
1,COc1cc2ncn(-c3cc(OCc4ccccc4S(C)(=O)=O)c(C#N)s3)c2cc1OC [GSK-319347A],> 5

# Tested on: NB17;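 also: growth inhibition of NB17 cells, read out with a cell viability assay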
# Assay: cells
# Format: functional, cell-based, Homo sapiens
# Conditions: Homo sapiens, NB17
# Description: SANGER: Inhibition of human NB17 cell growth in a cell viability assay.
row,SMILES,IC50 [µM]
1,COc1cc2ncn(-c3cc(OCc4ccccc4S(C)(=O)=O)c(C#N)s3)c2cc1OC [GSK-319347A],> 5
